Data on 55 molecules can be found in US8044073B2, “Aminobenzimidazoles and benzimidazoles as inhibitors of respiratory syncytial virus replication” (Tibotec Pharmaceuticals, priority 2003, dated 2011).

The structures appear in SMILES notation.

The first test concerns Respiratory Syncytial Virus. Nature of the test: In vitro screening for activity against RSV (tetrazolium-based colorimetric assay, protection against viral cytopathology). The settings on record: Table 1; RSV in HeLa cells, MTT, seven days after infection; pEC50 = -log of EC50 in molar units. It is filed as cell-based. The source says:
The percent protection against cytopathology caused by viruses (antiviral activity or EC50) achieved by tested compounds and their cytotoxicity (CC50) are both calculated from dose-response curves. The selectivity of the antiviral effect is represented by the selectivity index (SI), calculated by dividing the CC50 (cytotoxic dose for 50% of the cells) by the EC50 (antiviral activity for 50% of the cells). The tables in the above experimental part list the category to which each of the prepared compounds belong: Compounds belonging to activity category “A” have a pEC50 (−log of EC50 when expressed in molar units) equal to or more than 7. Compounds belonging to activity category “B” have a pEC50 value between 6 and 7.
Automated tetrazolium-based colorimetric assays were used for determination of EC50 and CC50 of test compounds. Flat-bottom, 96-well plastic microtiter trays were filled with 180 μl of Eagle's Basal Medium, supplemented with 5% FCS (0% for FLU) and 20 mM Hepes buffer. Subsequently, stock solutions (7.8× final test concentration) of compounds were added in 45 μl volumes to a series of triplicate wells so as to allow simultaneous evaluation of their effects on virus- and mock-infected cells. Five five-fold dilutions were made directly in the microtiter trays using a robot system. Untreated virus controls, and HeLa cell controls were included in each test. Approximately 100 TCID50 of Respiratory Syncytial Virus was added to two of the three rows in a volume of 50 μl. The same volume of medium was added to the third row to measure the cytotoxicity of the compounds at the same concentrations as those used to measure the antiviral activity. After two hours of incubation, a suspension (4×10^5 cells/ml) of HeLa cells was added to all wells in a volume of 50 μl. The cultures were incubated at 37° C. in a 5% CO2 atmosphere. Seven days after infection the cytotoxicity and the antiviral activity was examined spectrophotometrically. To each well of the microtiter tray, 25 μl of a solution of MTT (3-(4,5-dimethylthiazol-2-yl)-2,5-diphenyltetrazolium bromide) was added. The trays were further incubated at 37° C. for 2 hours, after which the medium was removed from each cup. Solubilization of the formazan crystals was achieved by adding 100 μl 2-propanol. Complete dissolution of the formazan crystals were obtained after the trays have been placed on a plate shaker for 10 min. Finally, the absorbances were read in an eight-channel computer-controlled photometer (Multiskan MCC, Flow Laboratories) at two wavelengths (540 and 690 nm). The absorbance measured at 690 nm was automatically subtracted from the absorbance at 540 nm, so as to eliminate the effects of non-specific absorption.
The percent protection against cytopathology caused by viruses (antiviral activity or EC50) achieved by tested compounds and their cytotoxicity (CC50) were both calculated from dose-response curves. The selectivity of the antiviral effect is represented by the selectivity index (SI), calculated by dividing the CC50 (cytotoxic dose for 50% of the cells) by the EC50 (antiviral activity for 50% of the cells).
`Cc1ccc(OCCO)c(NCc2ccc3nc(N)n(Cc4nc(C)ccc4O)c3c2)c1` [Compound 91] displayed an Activity of 10.5.
The molecule `Cc1ccc(O)c(Cn2c(N)nc3ccc(CNc4ccccc4C#N)cc32)n1` [Compound 25] came in with an Activity of 7.9.
The molecule `Cc1ccc(O)c(Cn2c(N)nc3ccc(CNc4cccc(NS(C)(=O)=O)c4)cc32)n1` [Compound 27] showed an Activity of 7.9.
On the same count and under the same terms, with `Cc1ccc(O)c(Cn2c(N)nc3ccc(CNc4cc(F)cc(C(F)(F)F)c4)cc32)n1` [Compound 45] the figure was 7.6; with `Cc1ccc(O)c(Cn2c(N)nc3ccc(CNc4ccc(Br)c(C)c4)cc32)n1` [Compound 56], 7.4.
`Cc1ccc(O)c(Cn2c(N)nc3ccc(CNc4cccc(Cc5ccccc5)c4)cc32)n1` [Compound 79]: the Activity is reported as 6.4.
Same read-out and setting: with `COc1ccc(NCc2ccc3nc(N)n(Cc4nc(C)ccc4O)c3c2)cc1OC` [Compound 61] the figure was 7.3; with `CC(=O)O.Cc1ccc(O)c(Cn2c(N)nc3ccc(CNc4ccccc4-c4ccccc4)cc32)n1` [Compound 58], 7.4; with `Cc1ccc(O)c(Cn2c(N)nc3ccc(CNc4cccc(Oc5ccccc5)c4)cc32)n1` [Compound 71], 7.1.
Still for that read-out and setting: the result for `Cc1ccc(O)c(Cn2c(N)nc3ccc(CNc4ccccc4Br)cc32)n1` [Compound 20] reads 8.0; that for `Cc1ccc(O)c(Cn2c(N)nc3ccc(CNc4ccccc4C(N)=O)cc32)n1` [Compound 39], 7.7; that for `Cc1ccc(O)c(Cn2c(N)nc3ccc(CNc4cc(Cl)cc(Cl)c4)cc32)n1` [Compound 2], 8.6.
For the molecule `Cc1cccc(NCc2ccc3nc(N)n(Cc4nc(C)ccc4O)c3c2)c1` [Compound 1, 2-[2-Amino-6-(mtolylamino-methyl)-benzoimidazol-1-ylmethyl]-6-methyl-pyridin-3-ol], the Activity worked out at 8.6.
`Cc1ccc(O)c(Cn2c(N)nc3ccc(CNc4ccc(Br)c(C(F)(F)F)c4)cc32)n1` [Compound 62] returned an Activity of 7.3.
On the same count and under the same terms, the result for `Cc1ccc(O)c(Cn2c(N)nc3ccc(CNc4cccc(CO)c4)cc32)n1` [Compound 26] reads 7.9; that for `CCc1cc(Br)ccc1NCc1ccc2nc(N)n(Cc3nc(C)ccc3O)c2c1` [Compound 52], 7.5.
`CCCCNS(=O)(=O)c1cccc(NCc2ccc3nc(N)n(Cc4nc(C)ccc4O)c3c2)c1` [Compound 47] returned an Activity of 7.6.
The same measure, in the same setting: the result for `Cc1ccc(O)c(Cn2c(N)nc3ccc(CNc4ccc(C)c(C)c4)cc32)n1` [Compound 23] reads 7.9.
For the molecule `Cc1ccc(O)c(Cn2c(N)nc3ccc(CNc4ccc(C)c(F)c4)cc32)n1` [Compound 60], the Activity was found to be 7.3.
`Cc1ccc(O)c(Cn2c(N)nc3ccc(CNc4ccccc4CCO)cc32)n1` [Compound 81] returned an Activity of 9.4.

Staying with this test, now noted: Table 2; RSV in HeLa cells, MTT, seven days after infection; pEC50 = -log of EC50 in molar units.
For `Cc1ccc(O)c(Cn2c(N)nc3cc(CNc4cccc(C)c4C)ccc32)n1` [Compound 119], the Activity is listed as 6.4.
Take `Cc1ccc(O)c(Cn2c(N)nc3cc(CNc4ccccc4)ccc32)n1` [Compound 116]: the Activity turned out to be 7.0.
Still for that read-out and setting: the result for `CCc1cccc(NCc2ccc3c(c2)nc(N)n3Cc2nc(C)ccc2O)c1` [Compound 125] reads <4.0; that for `C#Cc1cccc(NCc2ccc3c(c2)nc(N)n3Cc2nc(C)ccc2O)c1` [Compound 127], <4.0; that for `Cc1ccc(O)c(Cn2c(N)nc3cc(CNc4cccc(F)c4)ccc32)n1` [Compound 124], <4.0.
Still for that read-out and setting: with `Cc1ccc(O)c(Cn2c(N)nc3cc(CNc4cccc(Cl)c4)ccc32)n1` [Compound 122] the figure was <4.0.

Still in this test, the particulars now being: Table 3; RSV in HeLa cells, MTT, seven days after infection; pEC50 = -log of EC50 in molar units.
For `CNC(=O)CCN(Cc1ccc2nc(N)n(Cc3nc(C)ccc3O)c2c1)c1cccc(C)c1.Cl` [Compound 172], the Activity was 8.8.
On the same count and under the same terms, the result for `Cc1cccc(N(Cc2ccc3nc(N)n(Cc4nc(C)ccc4O)c3c2)Cc2c[nH]cn2)c1` [Compound 176] reads 8.3; that for `Cc1ccc(O)c(Cn2c(N)nc3ccc(CN(CCO)c4cnc5ccccc5c4)cc32)n1` [Compound 175], 8.5.
`Cc1cccc(N(CCCS(N)(=O)=O)Cc2ccc3nc(N)n(Cc4nc(C)ccc4O)c3c2)c1` [Compound 168]: the Activity was 9.3.

Still in this test, the particulars now being: Table 4; RSV in HeLa cells, MTT, seven days after infection; pEC50 = -log of EC50 in molar units.
For the molecule `CCc1cccc(NCc2ccc3ncn(Cc4nc(C)ccc4O)c3c2)c1` [Compound 187], the Activity came to 5.7.
Consider `Cc1ccc(O)c(Cn2cnc3ccc(CNc4cc(Cl)cc(Cl)c4)cc32)n1` [Compound 185], for which the Activity is on record as 6.1.
On to `Cc1cc(C)cc(NCc2ccc3ncn(Cc4nc(C)ccc4O)c3c2)c1` [Compound 184], for which the Activity came to 6.7.
Same read-out and setting: with `Cc1ccc(O)c(Cn2cnc3ccc(NC(=O)c4ccccc4)cc32)n1` [Compound 190] the figure was <4.0.

Staying with this test, now noted: Table 5b; RSV in HeLa cells, MTT, seven days after infection; pEC50 = -log of EC50 in molar units.
`Cc1ccc(CCCO)c(NCc2ccc3nc(N)n(Cc4cccc5cccnc45)c3c2)c1` [Compound 208] showed an Activity of 7.9.
Same read-out and setting: the result for `Cc1ccc(CCCO)c(NCc2ccc3nc(N)n(Cc4nc(C)c(C)nc4C)c3c2)c1` [Compound 218] reads 6.1; that for `Cc1ccc(CCCO)c(NCc2ccc3nc(N)n(Cc4cccc5c4ncn5C)c3c2)c1` [Compound 235], <4.
For the molecule `COc1ccc(C)nc1Cn1c(N)nc2ccc(CNc3cc(C)ccc3CCCO)cc21` [Compound 234], the Activity is <4.

Staying with this test, now noted: Table 6; numeric activity values, pEC50 (−log of EC50 in molar units).
`Cc1ccc(O)c(Cn2cnc3cc(CNc4cccc(Cl)c4)ccc32)n1` [Compound 288]: the Activity was <4.0.
On to `Cc1ccc(O)c(Cn2cnc3cc(C=Cc4ccccc4)ccc32)n1` [Compound 249], for which the Activity is given as <4.0.
Turning to `Cc1cc(C)cc(NCc2ccc3c(c2)ncn3Cc2nc(C)ccc2O)c1` [Compound 289], the Activity is listed as <4.0.
`Cc1ccc(O)c(Cn2cnc3ccc(NC(=O)c4cccnc4)cc32)n1` [Compound 278]: the Activity is reported as <4.0.
As for `Cc1ccc(O)c(Cn2cnc3cc(CNCc4ccncc4)ccc32)n1` [Compound 270], the Activity is <4.0.
Still for that read-out and setting: the result for `Cc1ccc(O)c(Cn2cnc3cc(NC(=O)c4ccccc4)ccc32)n1` [Compound 266] reads <4.0; that for `CC(=O)c1cccc(NCc2ccc3ncn(Cc4nc(C)ccc4O)c3c2)c1` [Compound 282], <4.0.
As for `Cc1ccc(O)c(Cn2cnc3cc(CNc4cc(Cl)cc(Cl)c4)ccc32)n1` [Compound 290], the Activity was <4.0.
Turning to `Cc1ccc(O)c(Cn2cnc3cc(CNc4cccc(C#N)c4)ccc32)n1` [Compound 292], the Activity is <4.0.
For the molecule `Cc1ccc(O)c(Cn2cnc3cc(CNCCCN4CCOCC4)ccc32)n1.Cl` [Compound 258], the Activity was <4.0.
In the case of `Cc1ccc(O)c(Cn2cnc3cc(CCc4ccccc4)ccc32)n1` [Compound 250], the Activity is <4.0.
Same read-out and setting: the result for `Cc1ccc(O)c(Cn2cnc3ccc(CO)cc32)n1` [Compound 247] reads <4.0; that for `Cc1ccc(O)c(Cn2cnc3cc(NC(=O)Cc4ccccc4)ccc32)n1` [Compound 244], 4.2; that for `Cc1ccc(O)c(Cn2cnc3cc(NC(=O)C4CCN(CCN)CC4)ccc32)n1` [Compound 245], 4.2.
On the same count and under the same terms, with `Cc1ccc(O)c(Cn2cnc3cc(CNc4ccccc4)ccc32)n1` [Compound 296] the figure was <4.0; with `Cc1ccc(O)c(Cn2cnc3cc(CNc4cccc5cccnc45)ccc32)n1` [Compound 291], <4.0; with `Cc1ccc(O)c(Cn2cnc3cc(CO)ccc32)n1` [Compound 246], <4.0.
